Drawing on DBAASP, this text covers MIC for 8 compounds.

Each structure is given as a SMILES string. Values after ≈ are worked out from the molar mass of the structure shown.

Some test systems named below: Candida albicans MDM8; Escherichia coli SBS 363; Micrococcus luteus A270; Escherichia coli W3110; Escherichia coli O157:H7; Acinetobacter baumannii; Vibrio cholerae O1 Inaba; Staphylococcus aureus.
Common to all, as to experiment: ≥ marks a high value that may be exact or a test limit, other limits are often not marked, values filed in µg/mL are converted to µM
In assay [1] the test system is Serratia marcescens ATCC 4112.
The test system of assay [2] is Enterobacter cloacae beta-12.
Assay [3] deals with Staphylococcus aureus ATCC 29213.
In assay [4] the test system is Bacillus subtilis ATCC 6633.
The subject of assay [5] is Candida tropicalis IOC 4560.
In assay [6] the test system is Pseudomonas aeruginosa ATCC 27853.
The subject of assay [7] is Bacillus megaterium ATCC 10778.
For assay [8], the system named is Escherichia coli ATCC 25922.
Assay [9] has as its system Klebsiella pneumoniae ATCC 700603.
The test system of assay [10] is Staphylococcus aureus ATCC 43300.
Assay [11] has as its system Candida albicans ATCC 90028.
For assay [12], the system named is Acinetobacter baumannii ATCC 19606.
Assay [13] relates to Staphylococcus aureus SH1000.
In assay [14] the test system is Cryptococcus neoformans ATCC 208821.
Assay [15] relates to Klebsiella pneumoniae ATCC BAA-1705.
For assay [16], the system named is Enterococcus faecalis ATCC 29212.
Assay [17] deals with Staphylococcus epidermidis ATCC 12228.
Assay [18] relates to Bacillus cereus ATCC 11778.
Assay [19] concerns Salmonella enterica subsp. enterica serovar Typhimurium ATCC 13311.
Assay [20] concerns Shigella sonnei ATCC 11060.
Assay [21] has as its system Listeria monocytogenes 10403s.
The subject of assay [22] is Staphylococcus aureus ATCC 25923.
Assay [23] concerns Candida albicans ATCC 36232.
In assay [24] the test system is Staphylococcus aureus ATCC 6538.
For assay [25], the system named is Proteus vulgaris ATCC 6380.
The test system of assay [26] is Micrococcus luteus ATCC 9341.
Assay [27] concerns Escherichia coli ATCC 2592.
Assay [28] has as its system Pseudomonas aeruginosa ATCC 9027.

With `CC(C)C[C@H](NC(=O)[C@H](C)NC(=O)CNC(=O)[C@H](CC(C)C)NC(=O)[C@@H](N)Cc1ccccc1)C(=O)N[C@@H](Cc1c[nH]c2ccccc12)C(=O)N[C@@H](CC(N)=O)C(=O)N[C@H](C(=O)N[C@@H](C)C(=O)N[C@@H](CCCCN)C(=O)N[C@@H](CCCN=C(N)N)C(=O)N[C@H](C(=O)N[C@@H](Cc1ccccc1)C(N)=O)C(C)C)C(C)C` [FLGALWNVAKRVF], the minimum inhibitory concentration (MIC) against Candida albicans MDM8 came out at 3.1 µM (≈ 4.71 µg/mL); in [1], 0.8 µM (≈ 1.22 µg/mL); in [2], 6.3 µM (≈ 9.58 µg/mL); in [3], 3.1 µM (≈ 4.71 µg/mL); in assay [4], 1.6 µM (≈ 2.43 µg/mL); against Escherichia coli SBS 363, 1.6 µM (≈ 2.43 µg/mL). The MIC with Micrococcus luteus A270 stood at 1.6 µM (≈ 2.43 µg/mL); in assay [5] it was 1.6 µM (≈ 2.43 µg/mL); in assay [6], 12.5 µM (≈ 19 µg/mL); in assay [7], 0.8 µM (≈ 1.22 µg/mL).

Take `CC(C)C[C@H](NC(=O)[C@H](C)NC(=O)CNC(=O)[C@H](CC(C)C)NC(=O)[C@@H](N)Cc1ccccc1)C(=O)N[C@@H](Cc1c[nH]c2ccccc12)C(=O)N[C@@H](CC(N)=O)C(=O)N[C@H](C(=O)N[C@@H](CC(C)C)C(=O)N[C@@H](CCCCN)C(=O)N[C@@H](CO)C(=O)N[C@H](C(=O)N[C@@H](Cc1ccccc1)C(N)=O)C(C)C)C(C)C` [FLGALWNVLKSVF]: the MIC with Candida albicans MDM8 was 3.1 µM (≈ 4.63 µg/mL); in assay [1], 0.4 µM (≈ 0.597 µg/mL); in assay [2] it was not below 50 µM; in [3] it was 0.8 µM (≈ 1.19 µg/mL); in assay [4], 0.8 µM (≈ 1.19 µg/mL); in the assay with Escherichia coli SBS 363 it was 0.8 µM (≈ 1.19 µg/mL). Further, the minimal inhibitory concentration (MIC) in the assay on Micrococcus luteus A270 is 0.4 µM (≈ 0.597 µg/mL); in assay [5] it was 3.1 µM (≈ 4.63 µg/mL); in [6], more than 50 µM; in assay [7] it was 3.1 µM (≈ 4.63 µg/mL).

Consider `CC(C)C[C@H](NC(=O)CN)C(=O)N[C@@H](Cc1ccccc1)C(=O)N[C@@H](CCCCN)C(=O)N[C@@H](CC(C)C)C(=O)N[C@@H](CC(C)C)C(=O)N[C@@H](CCCCN)C(=O)N[C@@H](CCCCN)C(=O)N[C@@H](CC(C)C)C(=O)N[C@@H](CC(C)C)C(=O)N[C@@H](CCCCN)C(=O)N[C@@H](CC(C)C)C(=O)N[C@@H](CC(C)C)C(=O)N[C@@H](CCCCN)C(N)=O` [GLFKLLKKLLKLLK], for which the MIC in assay [8] is more than 20 µM; in assay [9] it was more than 20 µM; in [10] it was more than 20 µM; in assay [11], 20 µM (≈ 33.1 µg/mL); in assay [12], more than 20 µM; in assay [13], not below 33 µM. Further, the figures for the MIC in [14] and in [6] were 20 µM (≈ 33.1 µg/mL) and more than 20 µM, respectively.

Turning to `CC[C@H](C)[C@H](N)C(=O)N[C@@H](CC(C)C)C(=O)N[C@@H](Cc1c[nH]c2ccccc12)C(=O)N[C@@H](C)C(=O)N[C@@H](CS)C(=O)N[C@@H](Cc1c[nH]c2ccccc12)C(=O)NCC(=O)N[C@@H](CC(C)C)C(=O)N[C@@H](CCCCN)C(=O)N[C@@H](CC(C)C)C(=O)N[C@@H](CC(C)C)C(=O)N[C@@H](CCCCN)C(=O)N[C@@H](Cc1ccc(O)cc1)C(=O)N[C@@H](CCCCN)C(=O)N[C@@H](CCCCN)C(=O)N[C@H](C(=O)N[C@@H](Cc1ccc(O)cc1)C(=O)O)[C@@H](C)CC` [ILWACWGLKLLKYKKIY], the MIC in assay [15] was not below 128 µM; against Escherichia coli W3110, 16 µM (≈ 34.2 µg/mL).

Consider `CC[C@H](C)[C@H](NC(=O)[C@H](CCCN=C(N)N)NC(=O)[C@H](CCCCN)NC(=O)[C@H](C)NC(=O)[C@@H](NC(=O)[C@@H](N)CCCCN)[C@@H](C)CC)C(=O)N[C@@H](Cc1c[nH]c2ccccc12)C(=O)N[C@@H](CCCCN)C(=O)N[C@H](C(=O)N[C@@H](CC(C)C)C(=O)N[C@@H](CCCN=C(N)N)C(=O)N[C@@H](CCCN=C(N)N)C(=O)N[C@@H](CCCN=C(N)N)C(=O)N[C@@H](CC(C)C)C(N)=O)[C@@H](C)CC` [KIAKRIWKILRRRL], for which the MIC in assay [16] was 67.6 µM (≈ 125 µg/mL); in assay [8], 8.45 µM (≈ 15.6 µg/mL); in assay [17], 2.11 µM (≈ 3.91 µg/mL); in assay [18] it was 4.22 µM (≈ 7.81 µg/mL); in the assay on Escherichia coli O157:H7, not below 33.8 µM; in assay [19] it was 1.05 µM (≈ 1.95 µg/mL). In addition, the MIC in assay [20] turned out to be 2.11 µM (≈ 3.91 µg/mL); in assay [21] it was 1.05 µM (≈ 1.95 µg/mL); in assay [22], 8.45 µM (≈ 15.6 µg/mL); with Acinetobacter baumannii, 2.11 µM (≈ 3.91 µg/mL); in the assay on Vibrio cholerae O1 Inaba, 4.22 µM (≈ 7.81 µg/mL); in assay [6], 2.11 µM (≈ 3.91 µg/mL).

Turning to `CC(C)C[C@H](NC(=O)[C@H](CCCCN)NC(=O)[C@H](Cc1ccccc1)NC(=O)[C@H](CC(C)C)NC(=O)[C@H](CC(C)C)NC(=O)[C@H](CCCCN)NC(=O)[C@@H](N)CCCCN)C(=O)N[C@@H](CCCCN)C(=O)N[C@@H](Cc1ccccc1)C(=O)N[C@@H](CCCCN)C(N)=O` [KKLLFKLKFK], the MIC was 2.41 µM (≈ 3.12 µg/mL) in assay [23]; 9.67 µM (≈ 12.5 µg/mL) in assay [24]; not below 77.4 µM in [25]; 2.41 µM (≈ 3.12 µg/mL) in [26]; 2.41 µM (≈ 3.12 µg/mL) in assay [27]; 1.21 µM (≈ 1.56 µg/mL) in [28]. The compound also returned a minimum inhibitory concentration (MIC) in the assay with Staphylococcus aureus of 38.7 µM (≈ 50 µg/mL).

As for `CC(C)C[C@H](NC(=O)[C@H](CCCCN)NC(=O)[C@H](Cc1ccccc1)NC(=O)[C@H](CC(C)C)NC(=O)[C@@H](NC(=O)[C@H](CCCCN)NC(=O)[C@@H](N)CCCCN)C(C)C)C(=O)N[C@@H](CCCCN)C(=O)N[C@@H](Cc1ccccc1)C(=O)N[C@@H](CCCCN)C(N)=O` [KKVLFKLKFK], the MIC in [23] is 2.44 µM (≈ 3.12 µg/mL); in assay [24], 9.78 µM (≈ 12.5 µg/mL); in assay [25], not below 78.2 µM; in assay [26], 2.44 µM (≈ 3.12 µg/mL); in [27], 2.44 µM (≈ 3.12 µg/mL); in assay [28], 1.22 µM (≈ 1.56 µg/mL). Also, the MIC against Staphylococcus aureus came to 19.6 µM (≈ 25 µg/mL).

For the compound `CC[C@H](C)[C@H](NC(=O)[C@H](CCCCN)NC(=O)[C@H](CCCCN)NC(=O)[C@H](Cc1ccc(O)cc1)NC(=O)[C@H](CCCCN)NC(=O)[C@H](CC(C)C)NC(=O)[C@H](CC(C)C)NC(=O)[C@H](CCCCN)NC(=O)[C@H](CC(C)C)NC(=O)CNC(=O)[C@H](Cc1c[nH]c2ccccc12)NC(=O)[C@H](CCCCN)NC(=O)[C@H](C)NC(=O)[C@H](Cc1c[nH]c2ccccc12)NC(=O)[C@H](CCCN=C(N)N)NC(=O)[C@@H](N)Cc1c[nH]c2ccccc12)C(=O)N[C@@H](Cc1ccc(O)cc1)C(=O)O` [WRWAKWGLKLLKYKKIY], the MIC in [15] worked out at 2 µM (≈ 4.56 µg/mL); against Escherichia coli W3110, 1 µM (≈ 2.28 µg/mL).

As usually defined, the MIC is the smallest concentration in the dilution series that meets the test's criterion for growth inhibition. A higher MIC goes with a less susceptible organism.
